One data set in a line: in vivo. Particulars: rat.
The subject of data set [1] is verticalisation induced by apomorphine. The experiment in a line: Verticalisation induced by apomorphine in the mouse. In kind it is in vivo. Particulars: sc, product s.c. 30 min before apomorphine 0.75 mg/kg s.c., read-out: ID50 verticalisation. Here is the method: 1. Verticalisation induced by apomorphine (0.75 mg/kg, s.c.) in the mouse
This test, described by Protais et al., Psychopharmacology, 50, 1-6 (1976), allows the evaluation of the dopaminergic antagonist activity of possible anti-psychotic products. A mouse to which apomorphine has been administered and which has been placed in a cage with vertical bars will, most of the time, remain immobile at the top of the cage, clinging by its four paws to the bars. This verticalisation behaviour is blocked if a dopaminergic antagonist product has been administered before the apomorphine.
Test immediately after subcutaneous (s.c.) administration of the product or solvent (control group), the mouse is placed in a cylindrical cage (14 cm diam.×14 cm height) with vertical bars. Thirty minutes later, the animal receives the dose of apomorphine (0.75 mg/kg, s.c.). […]
Statistical analysis: The effect of the product on verticalisation is evaluated by comparing the scores obtained for each group that has received a dose of product with those obtained for the control group (solvent) using a Mann and Whitney U test with a probability of p<0.05. […]

For data set [2], the system named is conditioned avoidance response. The experiment in a line: Active avoidance conditioning in the rat. The format is in vivo. Particulars: sc, administered subcutaneously 30 minutes before the session, read-out: ID50 conditioned avoidance responses. Here is the method:
2. Active avoidance conditioning in the rat
This test is conventionally used to characterise anti-psychotic products, cf. P. A. Janssen, C. J. E. Niemegeers, Arzneim-Forsch., 1037-1043 (1961).
It is carried out in a cage having two compartments with an electrified floor, on rats that have been conditioned in the following manner: on presentation of a light signal, the animal must move from the compartment in which it is situated to the other compartment in order not to receive an electric shock. The response of the animal to the light signal is a conditioned Avoidance response. […] The response to the electric shock is an unconditioned Escape response.
Conventionally, anti-psychotic products inhibit the conditioned Avoidance response at doses lower than those which inhibit the non-conditioned Escape response. That differentiates them from other classes of products (in particular, barbiturates and benzodiazepines), which inhibit both responses alike. […]
Test: the animals are their own controls. […] The effects of a product on the avoidance responses are evaluated during a Test Session which takes places the day after a Control Session during the course of which the animals will have received the solvent. […]

The subject of data set [3] is aggressiveness in isolated mice. Description: Test of aggressiveness in isolated mice. Particulars: Mus musculus, sc, administered subcutaneously 30 minutes before test, read-out: ID50 number or duration of the attacks. The format is in vivo. From the text:
3. Test of aggressiveness in isolated mice
This test allows the evaluation of the intraspecies anti-aggressive activity of a product in mice that have been kept in isolation for several months.
Animals: The test uses male CD mice (Charles River) weighing from 22 to 25 g on arrival at the animal house. Immediately on arrival the animals are isolated in individual cages made of opaque black polycarbonate (23×14×13 cm) having a grill lid, and are housed for a prolonged period (approximately 6 months) in the experimentation room.
Selection of pairs of mice: The selection of pairs of aggressive mice that will be used on a long-term basis in the study starts after the animals have been isolated for one month. Once or twice per week a mouse from another cage (intruder) is placed in the cage of a (resident) mouse and the two animals are observed to see if they attack one another (sniffing, pursuing, nipping, biting) during that trial. At the end of the trial (maximum duration of 10 minutes), each mouse is isolated again in its own cage. If attacks have occurred, the same pair will be tested again in the next trial; if there have been no attacks, each mouse of that pair will be placed in the presence of a different mouse in the following trial. […]

Description for in vivo: Induction of catalepsy in the rat
Test: the animals are placed in individual cages and food is withdrawn the day before the test, but drink is taken as desired. The catalepsy test comprises placing each rear paw of the animal on the front paw of the same side and measuring the time (seconds) during which the animal remains in that "crossed paws" position (maximum 30 seconds). Each animal is subjected to three successive tests (one every two minutes), the animal being removed from its cage and placed on the work surface. The tests are carried out one hour after the subcutaneous injection or oral administration of the product or its solvent. The average value of the three tests represents the duration of the catalepsy (in seconds) for each animal. There are five or six rats per experimental group.
Statistical analysis: The effect of the product on the duration of catalepsy is evaluated by an ANOVA, followed by a Dunnett's test, with a probability of p<0.05.

In “in vivo” (sc), `O=C(CCCN1CCC(O)(c2ccc(Cl)cc2)CC1)c1ccc(F)cc1` [haloperidol, reference compound] had an ED50 at 1 h of 0.15 mg/kg.
On to `O=C1N(CCN2CCC(c3noc4cc(F)ccc34)CC2)CCN1c1ccccc1` [Example 5, 1-{2-[4-(6-Fluoro-1,2-benzisoxazol-3-yl)piperid-1-yl]ethyl}-3-phenylimidazolidin-2-one], for which the ED50 stood at 0.22 mg/kg in data set [1], 0.88 mg/kg in data set [2] and 0.18 mg/kg in data set [3]. In the data set “in vivo”, this molecule gave an ED50 at 1 h of 34 mg/kg.

These data come from patent US5780474A, “3-(piperid-4-yl)-1,2-benzisoxazole and 3-(piperazin-4-yl)-1,2-benzisoxazole compounds” (Adir et Compagnie, priority 1996, dated 1998).
